# Measurements: US20090081170A1, “Cardiac progenitor cells” (priority 2007, published 2009)
# Where a SMILES comes first, the peptide text is derived from it.
# Experiments:
# [1] = tested on: Tβ4shNk embryo hearts at E14.5; experiment: AcSDKP intraperitoneal injection into pregnant females, rescue of Tβ4 knockdown embryo hearts; type: in vivo, mouse; conditions: E14.5 Tβ4shNk embryos
# Source text: To investigate a role for Tβ4 during heart development and to provide insight into the mechanism by which the peptide mediates adult cardiac repair, we generated mouse embryos with heart-specific Tβ4 deficiency using a novel strategy of transgenic conditional RNA interference (RNAi; as described above). Floxed Tβ4 short hairpin RNA (Tβ4shRNAflox) mice were crossed with two strains of Cre-expressing mice: Nkx2-5^CreKI (designated Tβ4shNk), which directs Cre expression throughout the majority of cardiomyocytes, and MLC2vCreKI (designated Tβ4shMlc), which directs Cre expression specifically to ventricular cardiomyocytes. Tβ4shNk embryos were also observed to have thymic defects consistent not only with Cre expression driven by Nkx2-5 in the developing thymus, but also with the thymus representing an obvious source of Tβ4.
# We next investigated whether AcSDKP could rescue any of the vasculogenesis defects observed in the Tβ4 mutant hearts. […] This supports our interpretation of the primary phenotype in Tβ4 mutants. AcSDKP lacks actin binding function, rendering it unable to stimulate filamentous actin assembly and lamellipodia-based cell migration and consequently unable to rescue the EPDC defect. […]
# [2] = tested on: adult heart explants (adult EPDCs); experiment: Adult epicardial explant culture: EPDC outgrowth and differentiation; type: cell-based, mouse
# Method: A simple protocol for the outgrowth and differentiation of vasculogenic precursor cells (endothelial and vascular smooth muscle cells) from adult heart using Thymosin β4 to stimulate epicardial cell migration is described below.
# • 1. Coat 6-well plates with gelatin: pipette 2 ml 0.1% gelatin solution, allow to stand for 15 minutes and aspirate. Optionally, place coverslips into wells, prior to gelatin coating. • 2. Cull adult mouse by cervical dislocation. • 3. Using sterile forceps and scissors make a lateral incision in the centre of the abdomen and tear back the fur to expose the rib cage. • 4. Carefully cut upwards through the sternum and along the diaphragm, taking care not to cut into the heart. Pull back the ribs to reveal the heart. • 5. Remove the heart using forceps and dissect away the atria and major vessels, to leave right and left ventricles. • 6. Place tissue in a 60 mm tissue culture dish (non gelatin coated) containing 2 ml DPBS. Cut into quarters and allow blood to rinse from the tissue. Carefully aspirate away DPBS. Using a sterile scalpel, cut the heart into pieces of approximately 1 mm^3. Reproducible EPDC outgrowth strongly depends upon the size of the heart pieces (optimally 1 mm^3). Larger pieces will not adhere to permit sufficient migration while smaller pieces tend to dissociate completely and cardiomyocyte death precedes adherence and EPDC outgrowth. • 7. Divide heart pieces into 4 equal portions (1 adult heart is typically divided between 4 wells for optimal EPDC outgrowth). • 8. Pipette 2 ml of EPDC culture medium, supplemented with 100 ng/ml Tβ4, into each well to be used. • 9. Place 1 portion of heart tissue into the centre of each well and ensure that all pieces are submerged. • 10. Gently transfer the plate to a humidified 5% CO2 37° C. incubator. Maintain cultures with minimum disturbance to allow explants to adhere. No feeding is required for the first 72 hours. Minimal disturbance is absolutely essential for EPDC outgrowth. Explants adhere only tenuously in the first instance and disturbance in the first few days of culture will prevent adhesion or lead to detachment. Plates should be transferred extremely cautiously between incubator and microscope or culture hood. After sufficient EPDCs have emerged, explants attach more firmly but care is still required as detachment may easily occur. • 11. After 72 hours in culture, carefully transfer plate to culture hood, wash explants gently with DPBS and add 2 ml fresh EPDC medium containing 100 ng/ml Tβ4. Leave for a further 24 hours before assessment of cellular phenotype.
# • 1. Culture adult heart explants as described above. • 2. After 72 hours of culture, fix cells with 4% PFA for 10 minutes at room temperature. • 3. Wash cells twice with PBS. • 4. Permeabilise cells with 0.5% Triton X-100 in PBS for 5 minutes at room temperature. • 5. Wash cells twice with PBS. • 6. Block non-specific binding by incubating cells in BLOCK (1% BSA/10% sheep serum in PBS) for 1 hour at room temperature. • 7. Incubate cells with an appropriate dilution of primary antibody (epicardin, 1:100; SMalphaA, 1:700; Flk1, 1:100), or Procollagen type I, 1:100), in BLOCK. • 8. Wash cells 3 times using BLOCK. • 9. Incubate cells with the appropriate secondary antibody (epicardin: Cy3-conjugated anti-rabbit; SMalphaA: FITC-conjugated anti-mouse, 1:30; Procollagen type I: Alexa 488-conjugated anti-goat, 1:200; Flk1: Alexa 594-conjugated anti-rat, 1:200) diluted in BLOCK. • 10. Wash cells twice in PBS. • 11. Optionally, to stain nuclei, incubate with 5 ug/ml Hoechst in PBS for 5 minutes at room temperature. • 12. Wash cells twice in PBS. • 13. Mount coverslips onto microscope slides using 50% glycerol in PBS as mountant and visualize using a fluorescence microscope. […]
smiles,measurement,setting,value
"CC(=O)N[C@@H](CO)C(=O)N[C@@H](CC(=O)O)C(=O)N[C@@H](CCCCN)C(=O)N1CCC[C@H]1C(=O)O [AcSDKP, N-acetyl-seryl-aspartyllysyl-proline] (Ac-SDKP-OH)",rescue of the phenotype attributed to Tβ4 knockdown,[1],failed to rescue any of the phenotype
same,differentiated (Flk1-positive) endothelial cells,[2]; adult epicardial explants,striking increase
same,smooth muscle cells in treated cultures,"[2]; adult epicardial explants, data not shown",only very few smooth muscle cells observed
same,EPDC outgrowth from adult heart explants,"[2]; adult mouse heart explants, 8-12 weeks, vs untreated explants",unable to promote epicardial outgrowth beyond control levels
